US20160130278A1 (TAISHO PHARMACEUTICAL CO., LTD, priority 2013, published 2016)

These compounds were tested against T1, human type 1 glycine transporter (GlyT1) (Homo sapiens, UniProt P48067) (assay: Glycine uptake inhibition experiment ([3H]glycine uptake)). Details: GlyT1.
T1 construct: T98G cells (glioma cells) expressing human type 1 glycine transporter (GlyT1) were used
T1 sequence (P48067 1-706): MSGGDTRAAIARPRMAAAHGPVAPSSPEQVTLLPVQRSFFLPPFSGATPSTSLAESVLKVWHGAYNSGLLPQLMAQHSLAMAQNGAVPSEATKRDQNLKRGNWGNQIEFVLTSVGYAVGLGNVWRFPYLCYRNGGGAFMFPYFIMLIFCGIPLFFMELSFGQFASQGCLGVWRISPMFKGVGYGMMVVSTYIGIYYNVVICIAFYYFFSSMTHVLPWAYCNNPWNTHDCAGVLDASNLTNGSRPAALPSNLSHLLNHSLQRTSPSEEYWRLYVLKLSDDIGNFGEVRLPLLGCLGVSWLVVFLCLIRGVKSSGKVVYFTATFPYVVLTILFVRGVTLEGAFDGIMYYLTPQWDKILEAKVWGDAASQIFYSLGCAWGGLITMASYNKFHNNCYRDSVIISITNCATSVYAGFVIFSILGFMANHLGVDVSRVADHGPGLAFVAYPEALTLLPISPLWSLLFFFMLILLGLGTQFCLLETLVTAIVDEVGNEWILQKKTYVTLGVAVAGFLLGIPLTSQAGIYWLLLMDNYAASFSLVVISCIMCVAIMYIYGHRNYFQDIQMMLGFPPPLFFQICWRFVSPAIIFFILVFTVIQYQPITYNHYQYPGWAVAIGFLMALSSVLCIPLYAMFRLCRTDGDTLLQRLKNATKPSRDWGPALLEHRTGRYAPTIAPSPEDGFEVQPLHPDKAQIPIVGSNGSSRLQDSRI
Format: cell-based
How it was run: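 T98G glioma cells expressing human GlyT1 were pretreated 10 min with compound in HEPES buffer pH 7.4 (0.2% BSA), then incubated with compound plus 250 nM final [3H]glycine for 15 min at room temperature. Intracellular radioactivity was counted after NaOH lysis; 10 μM ALX5407 defined non-specific uptake. IC50 came from 10^−9–10^−5 M curves.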

| Structure (SMILES) | IC50 |
| --- | --- |
| CS(=O)(=O)c1ccc(Cl)cc1C(=O)NC(c1cccc(F)c1Cl)[C@]1(O)CC[C@@H](F)CC1 (single isomer, unassigned) [Compound 364, 5-chloro-N-[(2-chloro-3-fluorophenyl)(cis-4-fluoro-1-hydroxycyclohexyl)methyl]-2-(methylsulfonyl)benzamide] | 530 nM |
| O=C(NC(c1cccc(F)c1Cl)[C@]1(O)CC[C@@H](F)CC1)c1ccccc1C1CC1 (single isomer, unassigned) [Compound 365, N-[(2-chloro-3-fluorophenyl)(cis-4-fluoro-1-hydroxycyclohexyl)methyl]-2-cyclopropylbenzamide] | 2800 nM |
| O=C(NC(c1ccccc1Cl)[C@]1(O)CC[C@@H](F)CC1)c1cc(C(F)(F)F)ncc1Cl (single isomer, unassigned) [Compound 366, 5-chloro-N-[(2-chlorophenyl)(cis-4-fluoro-1-hydroxycyclohexyl)methyl]-2-(trifluoromethyl)pyridine-4-carboxamide] | 320 nM |
| O=C(NC(c1ccccc1Cl)[C@]1(O)CC[C@@H](F)CC1)c1cc(C(F)(F)F)cnc1Cl (single isomer, unassigned) [Compound 367, 2-chloro-N-[(2-chlorophenyl)(cis-4-fluoro-1-hydroxycyclohexyl)methyl]-5-(trifluoromethyl)pyridine-3-carboxamide] | 380 nM |
| O=C(NC(c1ccccc1Cl)[C@]1(O)CC[C@@H](F)CC1)c1ccc(C(F)(F)F)nc1Cl (single isomer, unassigned) [Compound 368, 2-chloro-N-[(2-chlorophenyl)(cis-4-fluoro-1-hydroxycyclohexyl)methyl]-6-(trifluoromethyl)pyridine-3-carboxamide] | 760 nM |
| O=C(NC(c1cccc(F)c1Cl)[C@]1(O)CC[C@@H](F)CC1)c1cnc(Cl)cc1-n1nccn1 (single isomer, unassigned) [Compound 369, 6-chloro-N-[(2-chloro-3-fluorophenyl)(cis-4-fluoro-1-hydroxycyclohexyl)methyl]-4-(2H-1,2,3-triazol-2-yl)pyridine-3-carboxamide] | 1200 nM |
| O=C(NC(c1cccc(F)c1Cl)[C@]1(O)CC[C@@H](F)CC1)c1ccc(Cl)nc1-n1nccn1 (single isomer, unassigned) [Compound 370, 6-chloro-N-[(2-chloro-3-fluorophenyl)(cis-4-fluoro-1-hydroxycyclohexyl)methyl]-2-(2H-1,2,3-triazol-2-yl)pyridine-3-carboxamide] | 3000 nM |
| O=C(NC(c1cccc(F)c1Cl)[C@]1(O)CC[C@@H](F)CC1)c1ncc(Cl)cc1-n1nccn1 (single isomer, unassigned) [Compound 371, 5-chloro-N-[(2-chloro-3-fluorophenyl)(cis-4-fluoro-1-hydroxycyclohexyl)methyl]-3-(2H-1,2,3-triazol-2-yl)pyridine-2-carboxamide] | 1600 nM |
| CS(=O)(=O)c1ccc(C(F)(F)F)cc1C(=O)NC(c1cccc(F)c1Cl)[C@]1(O)CC[C@@H](F)CC1 (single isomer, unassigned) [Compound 372, N-[(2-chloro-3-fluorophenyl)(cis-4-fluoro-1-hydroxycyclohexyl)methyl]-2-(methylsulfonyl)-5-(trifluoromethyl)benzamide] | 41 nM |
| CS(=O)(=O)c1cc(C(F)(F)F)ccc1C(=O)NC(c1cccc(F)c1Cl)[C@]1(O)CC[C@@H](F)CC1 (single isomer, unassigned) [Compound 373, N-[(2-chloro-3-fluorophenyl)(cis-4-fluoro-1-hydroxycyclohexyl)methyl]-2-(methylsulfonyl)-4-(trifluoromethyl)benzamide] | 100 nM |
| O=C(NC(c1cc(F)ccc1Cl)[C@]1(O)CC[C@@H](F)CC1)c1nccc(C(F)(F)F)c1Cl (single isomer, unassigned) [Compound 374, 3-chloro-N-[(2-chloro-5-fluorophenyl)(cis-4-fluoro-1-hydroxycyclohexyl)methyl]-4-(trifluoromethyl)pyridine-2-carboxamide] | 170 nM |
| O=C(NC(c1cc(Cl)ccc1F)[C@]1(O)CC[C@@H](F)CC1)c1nccc(C(F)(F)F)c1Cl (single isomer, unassigned) [Compound 375, 3-chloro-N-[(5-chloro-2-fluroophenyl)(cis-4-fluoro-1-hydroxycyclohexyl)methyl]-4-(trifluoromethyl)pyridine-2-carboxamide] | 250 nM |
| O=C(NC(c1cc(Cl)ccc1F)[C@]1(O)CC[C@@H](F)CC1)c1ccnc(C(F)(F)F)c1Cl (single isomer, unassigned) [Compound 376, 3-chloro-N-[(5-chloro-2-fluorophenyl)(cis-4-fluoro-1-hydroxycyclohexyl)methyl]-2-(trifluoromethyl)pyridine-4-carboxamide] | 550 nM |
| O=C(NC(c1cc(Cl)ccc1F)[C@]1(O)CC[C@@H](F)CC1)c1cc(C(F)(F)F)ncc1Cl (single isomer, unassigned) [Compound 377, 5-chloro-N-[(5-chloro-2-fluorophenyl)(cis-4-fluoro-1-hydroxycyclohexyl)methyl]-2-(trifluoromethyl)pyridine-4-carboxamide] | 920 nM |
| O=C(NC(c1cc(Cl)ccc1F)[C@]1(O)CC[C@@H](F)CC1)c1cc(C(F)(F)F)cnc1Cl (single isomer, unassigned) [Compound 378, 2-chloro-N-[(5-chloro-2-fluroophenyl)(cis-4-fluoro-1-hydroxycyclohexyl)methyl]-5-(trifluoromethyl)pyridine-3-carboxamide] | 2300 nM |
| O=C(NC(c1cccc(F)c1Cl)[C@]1(O)CC[C@@H](F)CC1)c1cccc(C(F)(F)F)c1-n1nccn1 (single isomer, unassigned) [Compound 379, N-[(2-chloro-3-fluorophenyl)(cis-4-fluoro-1-hydroxycyclohexyl)methyl]-2-(2H-1,2,3-triazol-2-yl)-3-(trifluoromethyl)benzamide] | 790 nM |
| O=C(NC(c1cccc(F)c1Cl)[C@]1(O)CC[C@@H](F)CC1)c1ccc(C(F)(F)F)cc1-n1nccn1 (single isomer, unassigned) [Compound 380, N-[(2-chloro-3-fluorophenyl)(cis-4-fluoro-1-hydroxycyclohexyl)methyl]-2-(2H-1,2,3-triazol-2-yl)-4-(trifluoromethyl)benzamide] | 270 nM |
| O=C(NC(c1cccc(F)c1Cl)[C@]1(O)CC[C@@H](F)CC1)c1cc(C(F)(F)F)ccc1-n1nccn1 (single isomer, unassigned) [Compound 381, N-[-(2-chloro-3-fluorophenyl)(cis-4-fluoro-1-hydroxycyclohexyl)methyl]-2-(2H-1,2,3-triazol-2-yl)-5-(trifluoromethyl)benzamide] | 1200 nM |
| CN(C(=O)c1nccc(C(F)(F)F)c1Cl)C(c1cccc(F)c1Cl)[C@]1(O)CC[C@@H](F)CC1 (single isomer, unassigned) [Compound 382, 3-chloro-N-[(2-chloro-3-fluorophenyl)(cis-4-fluoro-1-hydroxycyclohexyl)methyl]-N-methyl-4-(trifluoromethyl)pyridine-2-carboxamide] | 740 nM |
| O=C(NC(c1cccc(Cl)n1)C1(O)CCCCC1)c1nccc(C(F)(F)F)c1Cl (single isomer, unassigned) [Compound 384, 3-chloro-N-[(6-chloropyridin-2-yl)(1-hydroxycyclohexyl)methyl]-4-(trifluoromethyl)pyridine-2-carboxamide] | 9.4 nM |
| O=C(NC(c1cccc(Cl)n1)C1(O)CCCCC1)c1ccnc(C(F)(F)F)c1Cl (single isomer, unassigned) [Compound 385, 3-chloro-N-[(6-chloropyridin-2-yl)(1-hydroxycyclohexyl)methyl]-2-(trifluoromethyl)pyridine-4-carboxamide] | 26 nM |
| CS(=O)(=O)c1cnc(C(F)(F)F)cc1C(=O)NC(c1cccc(F)c1Cl)[C@]1(O)CC[C@@H](F)CC1 (single isomer, unassigned) [Compound 386, N-[(2-chloro-3-fluorophenyl)(cis-4-fluoro-1-hydroxycyclohexyl)methyl]-5-(methylsulfonyl)-2-(trifluoromethyl)pyridine-4-carboxamide] | 35 nM |
| CS(=O)(=O)c1ncc(C(F)(F)F)cc1C(=O)NC(c1cccc(F)c1Cl)[C@]1(O)CC[C@@H](F)CC1 (single isomer, unassigned) [Compound 387, N-[(2-chloro-3-fluorophenyl)(cis-4-fluoro-1-hydroxycyclohexyl)methyl]-2-(methylsulfonyl)-5-(trifluoromethyl)pyridine-3-carboxamide] | 36 nM |
| CS(=O)(=O)c1nc(C(F)(F)F)ccc1C(=O)NC(c1cccc(F)c1Cl)[C@]1(O)CC[C@@H](F)CC1 (single isomer, unassigned) [Compound 388, N-[(2-chloro-3-fluorophenyl)(cis-4-fluoro-1-hydroxycyclohexyl)methyl]-2-(methylsulfonyl)-6-(trifluoromethyl)pyridine-3-carboxamide] | 260 nM |
